Measured values as given in patent publication US20060069132A1, “Azolecarboxamide herbicides” (priority 2004, published 2006).

How the values were obtained:
[1] = tested on: small flower umbrella sedge; assay: Test B flooded paddy test; format: in vivo, Cyperus difformis; settings: 1000 g ai/ha, visual rating, scale 0 to 100 (0 no effect, 100 complete control), 13 to 15 days
Method in brief: (§1)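 Formulated test chemicals went onto postemergence plants measuring 2 to 18 cm, at one to four leaves. For the paddy assay, species had reached two leaves. Scoring took place 13–15 days later by eye, relative to untreated plants, using 0 for no effect up to 100 for full control.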

[2] = tested on: ducksalad; assay: Test B flooded paddy test; format: in vivo, Heteranthera limosa; settings: 1000 g ai/ha, visual rating, scale 0 to 100 (0 no effect, 100 complete control), 13 to 15 days
Method in brief: as §1

[3] = tested on: rice; assay: Test B flooded paddy test; format: in vivo, Oryza sativa; settings: 1000 g ai/ha, visual rating, scale 0 to 100 (0 no effect, 100 complete control), 13 to 15 days
Method in brief: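 Treated at 2-leaf (paddy) or 1–4-leaf, 2–18 cm (postemergence); greenhouse 13–15 d; visual score vs control, 0 none to 100 complete control; dash = not tested.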

[4] = tested on: rice; assay: Test B pre-/postemergence herbicide test; format: in vivo, Oryza sativa; settings: 0 = no effect, 100 = complete control, preemergence
Method in brief: (§2)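 Herbicidal effect was judged by eye on a 0–100 scale after plants stood 13 to 15 days in the greenhouse following pre- or postemergence treatment with surfactant-containing formulations.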

[5] = tested on: lambsquarters; assay: Test B pre-/postemergence herbicide test; format: in vivo, Chenopodium album; settings: for Lambsquarters plant response rating: postemergence, scale 0 (no effect) to 100 (complete control)
Method in brief: as §2

[6] = tested on: velvetleaf; assay: Test B pre-/postemergence herbicide test; format: in vivo, Abutilon theophrasti; settings: for Velvetleaf plant response rating: postemergence, scale 0 (no effect) to 100 (complete control)
Method in brief: as §2

[7] = tested on: morningglory; assay: Test B pre-/postemergence herbicide test; format: in vivo, Ipomoea coccinea; settings: for Morningglory plant response rating: postemergence, scale 0 (no effect) to 100 (complete control)
Method in brief: (§3)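 Plants compared with untreated controls 13–15 days post-treatment and given a visual 0–100 injury score. Applications: preemergence to seeds; postemergence at 1- to 4-leaf (2–18 cm); paddy species flooded, 2-leaf stage. Vehicle non-phytotoxic, surfactant included.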

[8] = tested on: pigweed; assay: Test B pre-/postemergence herbicide test; format: in vivo, Amaranthus retroflexus; settings: for Pigweed plant response rating: postemergence, scale 0 (no effect) to 100 (complete control)
Method in brief: as §2

[9] = tested on: velvetleaf; assay: Test A pre-/postemergence herbicide test; format: in vivo, Abutilon theophrasti
Method in brief: (§4)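 Both application timings were run together: directed soil spray over freshly planted seeds in sandy loam, and runoff spray onto 2–10 cm seedlings. Evaluation after ~10 days in greenhouse used a 0–100 visual scale versus untreated controls.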

[10] = tested on: giant foxtail; assay: Test A pre-/postemergence herbicide test; format: in vivo, Setaria faberi
Method in brief: as §4

[11] = tested on: morningglory; assay: Test A pre-/postemergence herbicide test; format: in vivo, Ipomoea spp.
Method in brief: as §4

[12] = tested on: cocklebur; assay: Test B pre-/postemergence herbicide test; format: in vivo, Xanthium strumarium; settings: for Cocklebur plant response rating: postemergence, scale 0 (no effect) to 100 (complete control)
Method in brief: as §3

[13] = tested on: barnyardgrass; assay: Test A pre-/postemergence herbicide test; format: in vivo, Echinochloa crus-galli
Method in brief: as §4

[14] = tested on: giant foxtail; assay: Test B pre-/postemergence herbicide test; format: in vivo, Setaria faberi; settings: for Foxtail, Giant plant response rating: postemergence, scale 0 (no effect) to 100 (complete control)
Method in brief: as §2

[15] = tested on: corn; assay: Test B pre-/postemergence herbicide test; format: in vivo, Zea mays; settings: for Corn plant response rating: postemergence, scale 0 (no effect) to 100 (complete control)
Method in brief: as §2

[16] = tested on: blackgrass; assay: Test B postemergence herbicide test; format: in vivo, Alopecurus myosuroides; settings: postemergence, visual rating, scale 0 (no effect) to 100 (complete control)
Method in brief: as §1

[17] = tested on: large crabgrass; assay: Test B pre-/postemergence herbicide test; format: in vivo, Digitaria sanguinalis; settings: for Crabgrass, Large plant response rating: postemergence, scale 0 (no effect) to 100 (complete control)
Method in brief: as §2

[18] = tested on: large crabgrass; assay: Test A pre-/postemergence herbicide test; format: in vivo, Digitaria sanguinalis
Method in brief: as §4

[19] = tested on: Surinam grass; assay: Test B pre-/postemergence herbicide test; format: in vivo, Urochloa decumbens; settings: for Surinam Grass plant response rating: postemergence, scale 0 (no effect) to 100 (complete control)
Method in brief: as §2

[20] = tested on: redroot pigweed; assay: Test A pre-/postemergence herbicide test; format: in vivo, Amaranthus retroflexus
Method in brief: as §4

[21] = tested on: wheat; assay: Test B postemergence herbicide test; format: in vivo, Triticum aestivum; design: key to Wheat plant response rating: 0 = no effect, 100 = complete control; settings: postemergence, visual rating, scale 0 (no effect) to 100 (complete control)
Method in brief: (§5)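 Plants grow to 1- to 4-leaf stage (2–18 cm) for postemergence spraying, or to 2-leaf stage for the paddy test. Formulated compound is applied. Greenhouse holding lasts 13–15 days. Response is scored visually relative to controls, 0 no effect to 100 complete control; a dash means no result.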

[22] = tested on: barnyardgrass; assay: Test B flooded paddy test; format: in vivo, Echinochloa crus-galli; settings: 1000 g ai/ha, visual rating, scale 0 to 100 (0 no effect, 100 complete control), 13 to 15 days
Method in brief: as §1

[23] = tested on: wild oat; assay: Test B postemergence herbicide test; format: in vivo, Avena fatua; settings: postemergence, visual rating, scale 0 (no effect) to 100 (complete control)
Method in brief: as §5

[24] = tested on: barnyardgrass; assay: Test B pre-/postemergence herbicide test; format: in vivo, Echinochloa crus-galli; settings: for Barnyardgrass plant response rating: postemergence, scale 0 (no effect) to 100 (complete control)
Method in brief: as §3

[25] = 125 g ai/ha, 0 = no effect, 100 = complete control, preemergence
[26] = 500 g ai/ha, visual rating, 0 = no effect, 100 = complete control, preemergence
[27] = Postemergence, 500 g ai/ha, 0 to 100 scale, 0 no effect, 100 complete control
[28] = Postemergence, 2000 g ai/ha, 0 to 100 scale, 0 no effect, 100 complete control
[29] = Preemergence, 2000 g ai/ha, visual rating, 0 to 100 scale (0 no effect, 100 complete control)
[30] = preemergence, 500 g ai/ha, visual injury, 0 to 100 scale (0 no effect, 100 complete control)

C#CCNC(=O)c1cccc(NC(=O)c2sc(C(C)(C)C)nc2CC)n1 [Compound 217]
Sedge, Umbrella plant response rating [1]: 0 | Ducksalad plant response rating [2]: 0 | Rice plant response rating [3]: 0 | Rice plant response rating (0 to 100 scale) ([4]; 125 g ai/ha): 0 | Plant response rating, Rice ([4]; 500 g ai/ha, visual rating): 0 | Lambsquarters plant response rating (0 to 100 scale) [5, 25]: 0 | Plant response rating, Lambsquarters [5, 26]: 0 | Lambsquarters plant response rating ([5]; 125 g ai/ha, visual rating): 0 | Lambsquarters plant response rating ([5]; 500 g ai/ha, visual rating): 0 | Velvetleaf plant response rating (0 to 100 scale) [6, 25]: 0 | Plant response rating, Velvetleaf [6, 26]: 0 | Velvetleaf plant response rating ([6]; 125 g ai/ha, visual rating): 0 | Velvetleaf plant response rating ([6]; 500 g ai/ha, visual rating): 10 | Morningglory plant response rating (0 to 100 scale) [7, 25]: 0 | Plant response rating, Morningglory [7, 26]: 0 | Morningglory plant response rating ([7]; 125 g ai/ha, visual rating): 0 | Morningglory plant response rating ([7]; 500 g ai/ha, visual rating): 10 | Pigweed plant response rating (0 to 100 scale) [8, 25]: 0 | Plant response rating, Pigweed [8, 26]: 0 | Pigweed plant response rating ([8]; 125 g ai/ha, visual rating): 0 | Pigweed plant response rating ([8]; 500 g ai/ha, visual rating): 0 | Velvetleaf plant response rating [9, 27]: 5 | Plant response rating, Velvetleaf [9, 28]: 30 | Velvetleaf plant response rating [9, 29]: 5 | Velvetleaf plant response rating [9, 30]: 0 | Foxtail, Giant plant response rating [10, 27]: 0 | Plant response rating, Foxtail, Giant [10, 28]: 0 | Foxtail, Giant plant response rating [10, 29]: 10 | Foxtail, Giant plant response rating [10, 30]: 0 | Morningglory plant response rating [11, 27]: 15 | Plant response rating, Morningglory [11, 28]: 25 | Morningglory plant response rating [11, 29]: 0 | Morningglory plant response rating [11, 30]: 0 | Cocklebur plant response rating (0 to 100 scale) [12, 25]: 0 | Plant response rating, Cocklebur [12, 26]: 0 | Cocklebur plant response rating ([12]; 125 g ai/ha, visual rating): 0 | Cocklebur plant response rating ([12]; 500 g ai/ha, visual rating): 0 | Barnyardgrass plant response rating [13, 27]: 0 | Plant response rating, Barnyardgrass [13, 28]: 0 | Barnyardgrass plant response rating [13, 29]: 0 | Barnyardgrass plant response rating [13, 30]: 0 | Foxtail, Giant plant response rating (0 to 100 scale) [14, 25]: 0 | Plant response rating, Foxtail, Giant [14, 26]: 0 | Foxtail, Giant plant response rating ([14]; 125 g ai/ha, visual rating): 0 | Foxtail, Giant plant response rating ([14]; 500 g ai/ha, visual rating): 0 | Corn plant response rating (0 to 100 scale) [15, 25]: 0 | Plant response rating, Corn [15, 26]: 0 | Corn plant response rating ([15]; 125 g ai/ha, visual rating): 0 | Corn plant response rating ([15]; 500 g ai/ha, visual rating): 0 | Blackgrass plant response rating ([16]; 125 g ai/ha): 0 | Blackgrass plant response rating ([16]; 500 g ai/ha): 0 | Crabgrass, Large plant response rating (0 to 100 scale) [17, 25]: 0 | Plant response rating, Crabgrass, Large [17, 26]: 0 | Crabgrass, Large plant response rating ([17]; 125 g ai/ha, visual rating): 0 | Crabgrass, Large plant response rating ([17]; 500 g ai/ha, visual rating): 0 | Crabgrass, Large plant response rating [18, 27]: 0 | Plant response rating, Crabgrass, Large [18, 28]: 20 | Crabgrass, Large plant response rating [18, 29]: 10 | Crabgrass, Large plant response rating [18, 30]: 0 | Surinam Grass plant response rating (0 to 100 scale) [19, 25]: 0 | Plant response rating, Surinam Grass [19, 26]: 0 | Surinam Grass plant response rating ([19]; 125 g ai/ha, visual rating): 0 | Surinam Grass plant response rating ([19]; 500 g ai/ha, visual rating): 10 | Pigweed plant response rating [20, 27]: 10 | Plant response rating, Pigweed [20, 28]: 25 | Pigweed plant response rating [20, 29]: 40 | Pigweed plant response rating [20, 30]: 0 | Wheat plant response rating ([21]; 125 g ai/ha): 0 | Wheat plant response rating ([21]; 500 g ai/ha): 0 | Barnyardgrass plant response rating [22]: 0 | Oat, Wild plant response rating ([23]; 125 g ai/ha): 0 | Oat, Wild plant response rating ([23]; 500 g ai/ha): 0 | Barnyardgrass plant response rating (0 to 100 scale) [24, 25]: 0 | Plant response rating, Barnyardgrass [24, 26]: 0 | Barnyardgrass plant response rating ([24]; 125 g ai/ha, visual rating): 0 | Barnyardgrass plant response rating ([24]; 500 g ai/ha, visual rating): 0
